Patent US12661415B2, “Isoindolinone compounds and imaging agents for imaging Huntingtin protein” (CHDI Foundation, Inc., priority 2021, dated 2026)
Entries after “also recorded” stand apart in the source; their conditions may differ.

Key:
[1] = biological target: mHTT aggregates (Mus musculus, UniProt P42859); test: In situ autoradiography (ARG) saturation binding, HOM zQ175 HD mouse model brain sections; details: for Bmax: 12-month-old HOM zQ175, tritium-labeled radioligand
Excerpt: In situ autoradiography (ARG) was used to investigate the pharmacological binding characteristics of a tritium-labeled Compound 1-6 (“[^3H]-Compound 1-6”) in the HD mouse model 12-month-old HOM zQ175 and human post-mortem brains from healthy and HD gene-expanded carriers ([…]); specificity of binding was explored by including samples from Alzheimer's disease (AD) patients, which contain other pathological aggregates (e.g., Abeta-containing plaques and phosphor-Tau-expressing tangles). Saturation binding experiments were performed in coronal brain sections; [^3H]-Compound 1-6 binding was quantified by densitometric analysis and specific binding was determined in cortex (CTX). Affinity (KD) and maximum number of binding sites (Bmax) were determined for each region of interest (ROI). At the appropriate ages, HD and WT mice of the different strains were sacrificed by cervical dislocation, and the brains, including cerebellum, were dissected and washed in ice cold PBS. Subsequently, the brains were patted dry on paper towels and transferred into a 6-well plate filled with isopentane that was cooled to a temperature between -30° C. and -40° C. The frozen brains were stored at -80° C. until sectioning. The non-fixed and non-embedded frozen brains were sectioned by using a cryostat at -18° C. Thereby, serial coronal tissue sections of 20 μm thickness were mounted on superfrost slides and dried at room temperature for approximately 90 minutes. The slides were stored at -80° C. until the different experiments were conducted, but not longer than 3 weeks. A similar procedure was conducted with fresh-frozen human post-mortem brain blocks (healthy subjects {CTRL}, Huntingon's disease {HD}, and Alzheimer's disease {AD}). The appropriate number of slides containing the respective tissue sections were acclimated to room temperature for 30 minutes. The slides were then pre-incubated by immersion into 40 mL assay buffer for 20 minutes at room temperature. […] Within each brain section, regions of interest (ROI) were defined for STR, CTX, and HPC by using appropriate sample tools, and the software calculated density measures from the gray level values of all pixels within a defined ROI (Molecular dynamics counts per unit area, MDC/mm^2). Densitometric calibration related the optical densities to known concentrations of radioactivity from the calibrated tritium standards (fmol/mg tissue) and mean values were calculated for each ROI of the individual brains. Total binding (TB) and non-specific binding (NSB) of the radioligand were quantified, and specific binding (SB) was derived by subtracting NSB from TB (SB=TB-NSB) for each brain and ROI, respectively. Subsequently, the group mean±standard deviation (SD) was calculated for each ROI and experimental condition. […]

[2] = system: mHTT aggregates; test: In situ autoradiography (ARG) binding, human post-mortem brain sections; details: for specific HD binding at 0.3 nM radioligand: human HD brain sections
Excerpt: In situ autoradiography (ARG) was used to investigate the pharmacological binding characteristics of a tritium-labeled Compound 1-6 (“[^3H]-Compound 1-6”) in the HD mouse model 12-month-old HOM zQ175 and human post-mortem brains from healthy and HD gene-expanded carriers (HDGECs); specificity of binding was explored by including samples from Alzheimer's disease (AD) patients, which contain other pathological aggregates (e.g., Abeta-containing plaques and phosphor-Tau-expressing tangles). Saturation binding experiments were performed in coronal brain sections; [^3H]-Compound 1-6 binding was quantified by densitometric analysis and specific binding was determined in cortex (CTX). Affinity (KD) and maximum number of binding sites (Bmax) were determined for each region of interest (ROI).
The non-fixed and non-embedded frozen brains were sectioned by using a cryostat at −18° C. Thereby, serial coronal tissue sections of 20 μm thickness were mounted on superfrost slides and dried at room temperature for approximately 90 minutes. The slides were stored at −80° C. until the different experiments were conducted, but not longer than 3 weeks. A similar procedure was conducted with fresh-frozen human post-mortem brain blocks (healthy subjects {CTRL}, Huntingon's disease {HD}, and Alzheimer's disease {AD}).
The appropriate number of slides containing the respective tissue sections were acclimated to room temperature for 30 minutes. The slides were then pre-incubated by immersion into 40 mL assay buffer for 20 minutes at room temperature. Following this pre-incubation step, one slide per animal was incubated by immersion into 30 mL of the 10 nM, 3 nM, 1 nM, 0.3 nM, 0.1 nM, 0.03 nM, 0.01 nM, or 0.003 nM Compound 1-6 solutions and one slide was incubated by immersion into 30 mL of 10 nM, 3 nM, 1 nM, 0.3 nM, 0.1 nM, 0.03 nM, 0.01 nM, or 0.003 nM [^3H]-Compound 1-6, plus 10 μM unlabeled Compound 1-6 solutions for 60 minutes at room temperature, respectively. A similar paradigm was performed with tritium-labeled Comparative Compound 3 (“[^3H]-Comparative Compound 3”) and tritium-labeled Comparative Compound 4 (“[^3H]-Comparative Compound 4”). Structures of these comparative compounds and compound 1-6 are shown below.
Afterwards, the slides were washed three times for 10 minutes with 200 mL of ice cold washing buffer at 4° C. and dipped for three seconds in ice cold distilled water to remove buffer salts. The slides were dried for three hours at 30° C. and exposed for 96 hours to Fuji BAS-TR 2015 tritium phosphor screens together with the calibrated tritium standards ART 0123C and ART 0123B. Stored radiation energy on the screen was scanned using the phosphorimager Typhoon FLA 7000.
Densitometric data analysis was performed using the MCID Analysis 7.1 software (Interfocus Imaging Ltd.). Within each brain section, regions of interest (ROI) were defined for STR, CTX, and HPC by using appropriate sample tools, and the software calculated density measures from the gray level values of all pixels within a defined ROI (Molecular dynamics counts per unit area, MDC/mm^2). Densitometric calibration related the optical densities to known concentrations of radioactivity from the calibrated tritium standards (fmol/mg tissue) and mean values were calculated for each ROI of the individual brains. Total binding (TB) and non-specific binding (NSB) of the radioligand were quantified, and specific binding (SB) was derived by subtracting NSB from TB (SB=TB−NSB) for each brain and ROI, respectively. Subsequently, the group mean±standard deviation (SD) was calculated for each ROI and experimental condition. The data were fitted to one-site binding equation using non-linear regression method in GraphPad Prism Software.

Chain of mHTT aggregates (Mus musculus, UniProt P42859) (P42859 whole entry): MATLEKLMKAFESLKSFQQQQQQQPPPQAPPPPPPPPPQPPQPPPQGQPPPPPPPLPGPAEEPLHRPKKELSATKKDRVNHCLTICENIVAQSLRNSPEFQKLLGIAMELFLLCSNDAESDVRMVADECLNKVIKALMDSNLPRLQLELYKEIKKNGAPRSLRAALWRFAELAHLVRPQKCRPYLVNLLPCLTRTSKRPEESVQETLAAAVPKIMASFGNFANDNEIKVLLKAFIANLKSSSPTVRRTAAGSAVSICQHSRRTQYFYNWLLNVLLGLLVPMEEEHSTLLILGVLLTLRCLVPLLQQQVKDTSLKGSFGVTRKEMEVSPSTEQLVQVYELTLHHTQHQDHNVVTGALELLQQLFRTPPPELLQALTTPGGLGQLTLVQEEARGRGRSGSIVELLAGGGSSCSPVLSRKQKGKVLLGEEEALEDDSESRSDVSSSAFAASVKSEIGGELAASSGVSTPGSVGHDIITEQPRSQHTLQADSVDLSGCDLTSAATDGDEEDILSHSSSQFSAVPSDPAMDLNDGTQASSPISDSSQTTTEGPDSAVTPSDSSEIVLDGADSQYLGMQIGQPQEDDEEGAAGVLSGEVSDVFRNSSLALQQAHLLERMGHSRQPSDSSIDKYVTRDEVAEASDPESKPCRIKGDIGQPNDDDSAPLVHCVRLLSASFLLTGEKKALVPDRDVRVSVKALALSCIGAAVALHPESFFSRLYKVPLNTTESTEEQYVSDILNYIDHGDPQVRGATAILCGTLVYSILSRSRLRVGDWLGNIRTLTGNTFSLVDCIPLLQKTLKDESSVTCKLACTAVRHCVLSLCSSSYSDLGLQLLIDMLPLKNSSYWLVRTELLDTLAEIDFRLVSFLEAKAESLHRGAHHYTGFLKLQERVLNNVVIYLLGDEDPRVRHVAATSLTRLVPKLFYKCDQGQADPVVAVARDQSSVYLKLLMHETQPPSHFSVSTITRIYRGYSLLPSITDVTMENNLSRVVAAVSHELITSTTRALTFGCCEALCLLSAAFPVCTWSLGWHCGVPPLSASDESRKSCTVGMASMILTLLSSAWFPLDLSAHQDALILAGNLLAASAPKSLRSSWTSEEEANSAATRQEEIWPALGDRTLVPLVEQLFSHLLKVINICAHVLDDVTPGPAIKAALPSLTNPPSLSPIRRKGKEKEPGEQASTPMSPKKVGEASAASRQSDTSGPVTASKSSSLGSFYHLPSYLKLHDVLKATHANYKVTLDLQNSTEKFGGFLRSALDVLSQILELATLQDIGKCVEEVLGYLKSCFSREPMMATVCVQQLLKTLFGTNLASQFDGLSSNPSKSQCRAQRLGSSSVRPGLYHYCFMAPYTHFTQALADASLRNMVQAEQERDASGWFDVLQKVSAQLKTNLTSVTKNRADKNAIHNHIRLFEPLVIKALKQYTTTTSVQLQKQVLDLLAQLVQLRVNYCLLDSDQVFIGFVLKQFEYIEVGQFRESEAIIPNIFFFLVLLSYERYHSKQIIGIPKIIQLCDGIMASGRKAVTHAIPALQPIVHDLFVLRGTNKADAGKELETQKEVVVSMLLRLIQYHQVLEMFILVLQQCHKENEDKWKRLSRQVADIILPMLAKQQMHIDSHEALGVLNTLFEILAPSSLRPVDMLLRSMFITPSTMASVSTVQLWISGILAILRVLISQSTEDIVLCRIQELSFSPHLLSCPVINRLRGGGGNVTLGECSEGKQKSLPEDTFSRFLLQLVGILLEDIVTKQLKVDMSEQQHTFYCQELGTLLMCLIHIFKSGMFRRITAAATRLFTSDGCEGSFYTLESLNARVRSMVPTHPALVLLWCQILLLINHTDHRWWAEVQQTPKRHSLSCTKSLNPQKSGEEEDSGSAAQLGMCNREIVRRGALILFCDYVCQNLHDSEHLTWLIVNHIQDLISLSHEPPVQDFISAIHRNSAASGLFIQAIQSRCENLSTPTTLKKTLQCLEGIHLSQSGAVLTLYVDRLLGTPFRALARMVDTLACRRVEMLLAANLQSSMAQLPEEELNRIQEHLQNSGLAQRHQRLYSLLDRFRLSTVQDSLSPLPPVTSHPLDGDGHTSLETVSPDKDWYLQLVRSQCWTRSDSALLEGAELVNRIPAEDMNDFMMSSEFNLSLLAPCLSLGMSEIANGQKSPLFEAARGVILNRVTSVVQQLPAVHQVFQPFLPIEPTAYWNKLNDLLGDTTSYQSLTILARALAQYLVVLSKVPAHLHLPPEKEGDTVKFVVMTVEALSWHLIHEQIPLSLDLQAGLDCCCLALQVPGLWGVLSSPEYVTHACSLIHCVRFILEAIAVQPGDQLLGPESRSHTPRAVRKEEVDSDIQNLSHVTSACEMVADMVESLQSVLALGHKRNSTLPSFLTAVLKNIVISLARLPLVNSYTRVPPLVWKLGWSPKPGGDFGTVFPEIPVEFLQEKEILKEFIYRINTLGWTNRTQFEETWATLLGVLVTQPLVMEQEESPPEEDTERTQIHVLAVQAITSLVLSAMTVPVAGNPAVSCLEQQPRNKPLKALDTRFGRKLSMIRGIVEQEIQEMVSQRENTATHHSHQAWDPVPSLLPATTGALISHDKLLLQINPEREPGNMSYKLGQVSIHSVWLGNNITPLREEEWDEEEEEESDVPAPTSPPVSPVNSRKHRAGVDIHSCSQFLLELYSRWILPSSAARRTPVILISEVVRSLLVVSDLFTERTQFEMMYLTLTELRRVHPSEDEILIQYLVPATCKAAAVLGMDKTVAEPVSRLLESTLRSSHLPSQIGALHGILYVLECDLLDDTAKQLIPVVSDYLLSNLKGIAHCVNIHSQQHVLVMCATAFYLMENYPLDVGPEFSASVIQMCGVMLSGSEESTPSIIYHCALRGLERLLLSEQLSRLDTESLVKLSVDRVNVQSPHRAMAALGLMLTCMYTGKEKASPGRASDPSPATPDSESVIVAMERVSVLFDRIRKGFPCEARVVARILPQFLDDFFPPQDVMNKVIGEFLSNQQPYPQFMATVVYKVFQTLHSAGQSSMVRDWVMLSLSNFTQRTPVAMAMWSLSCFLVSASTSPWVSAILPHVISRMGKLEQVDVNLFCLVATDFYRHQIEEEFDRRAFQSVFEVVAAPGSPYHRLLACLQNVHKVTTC

Row | SMILES | binding to WT brain sections ([1]; WT mouse brain sections, only detectable above LLoQ (0.5 fmol/mg tissue) at 3 nM and 10 nM) | Bmax (concentration of specific binding sites) ([1]; cortex, 12-month-old HOM zQ175) [fmol/mg tissue] | Bmax ([1]; cortex) [fmol/mg] | specific binding, AD patients ([2]; cortex brain sections from AD patients) [fmol/mg tissue] | specific binding, HD donors ([2]; frontal cortical sections from HD donors) [fmol/mg tissue] | specific binding, CTRL tissue ([2]; frontal cortical sections, healthy subjects (CTRL)) [fmol/mg tissue] | specific HD binding at 0.3 nM radioligand [2] | binding to healthy control or Alzheimer's disease brain sections ([2]; human post-mortem brain sections) | binding density to juvenile HD brain ([2]; juvenile HD sample (one case) vs adult-onset HD brains) | white matter binding ([2]; post-mortem human brain, white matter) [fmol/mg tissue]
1 | COc1ccc(COc2ccc3c(c2)CN(c2ccc(=O)n(C)n2)C3=O)nc1 [[^3H]-Compound 1-6] | minor | 448.6 | 448 | 0.1±0.0 | 0.8±0.2 | 0.0±0.0 | significant specific HD binding was detectable; also recorded: binds selectively to human HD brain sections | little to no binding | highest binding density | ≤ 0.5
2 | COc1ccc(NC(=O)c2ccn3c(n2)nc2ccccc23)cn1 [[^3H]-Comparative Compound 3, reference compound] |  |  | 169 |  |  |  | no HD binding was detectable; also recorded: failed to reveal HD binding |  |  | 
